# Measured values reported in ChEMBL document CHEMBL1141229, “On the use of nonfluorescent dye labeled ligands in FRET-based receptor binding studies” (J Med Chem, 2005).
# Molecular target: Muscarinic acetylcholine receptor M1 (Homo sapiens, UniProt P11229)
# Experiment: Displacement of [3H]QNB from EGFP(delta-17)human M1 receptor expressed in HEK cells
# Type: cell-based
# Details: hek293
# Chain of Muscarinic acetylcholine receptor M1 (P11229 whole entry, looked up): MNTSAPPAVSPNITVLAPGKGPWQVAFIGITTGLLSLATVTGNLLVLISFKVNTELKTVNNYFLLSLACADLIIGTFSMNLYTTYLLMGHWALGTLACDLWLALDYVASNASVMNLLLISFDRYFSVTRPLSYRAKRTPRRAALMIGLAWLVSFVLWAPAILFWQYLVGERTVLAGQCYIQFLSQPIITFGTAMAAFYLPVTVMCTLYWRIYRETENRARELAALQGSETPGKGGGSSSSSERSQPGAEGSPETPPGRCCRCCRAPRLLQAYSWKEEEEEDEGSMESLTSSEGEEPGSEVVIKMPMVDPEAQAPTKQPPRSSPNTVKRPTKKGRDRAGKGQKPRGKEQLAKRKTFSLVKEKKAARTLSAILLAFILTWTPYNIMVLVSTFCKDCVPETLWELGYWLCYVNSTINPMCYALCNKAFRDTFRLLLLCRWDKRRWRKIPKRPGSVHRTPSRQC
row,SMILES,Ki [nM]
1,CCN1/C(=C/C=C/c2ccc3cc(NC(=O)CCCCC(=O)O)ccc3[n+]2CC)C=Cc2ccccc21,> 10000
2,O=C(CCCCCNC(=O)CCc1ccc2n1[B-](F)(F)[N+]1=C(c3cccs3)C=CC1=C2)NCCCCN1CCN(CC(=O)N2c3ccccc3C(=O)Nc3cccnc32)CC1,69.7
3,CCN(CC)c1ccc([C+](c2ccc(N(CC)CC)cc2)c2ccc(S(=O)(=O)NCCCCCC(=O)NCCOCCOCCN3CCN(CC(=O)N4c5ccccc5C(=O)Nc5cccnc54)CC3)cc2S(=O)(=O)[O-])cc1,189

# The next lines start with the values.
row,Ki [nM],SMILES
1,53.5,CCN(CC)c1ccc2c(-c3ccc(S(=O)(=O)NCCCCCC(=O)NCCOCCOCCN4CCN(CC(=O)N5c6ccccc6C(=O)Nc6cccnc65)CC4)cc3S(=O)(=O)[O-])c3ccc(=[N+](CC)CC)cc-3oc2c1
2,29.4,CCN1/C(=C/C=C/c2ccc3cc(NC(=O)CCCCC(=O)NCCOCCOCCN4CCN(CC(=O)N5c6ccccc6C(=O)Nc6cccnc65)CC4)ccc3[n+]2CC)C=Cc2ccccc21
3,> 10000,CCN(CC)c1ccc([C+](c2ccc(N(CC)CC)cc2)c2ccc(S(=O)(=O)NCCCCCC(=O)O)cc2S(=O)(=O)[O-])cc1
